Source: BindingDB's records for doi:10.1016/0014-2999(96)00088-x (University Clinic For Psychiatry, 1996)
“And” between values parts separate entries of the source, which are not always exact repeats. Equal entries are not always repeated.

How the values were obtained:
[1] = target: T1, Gamma-aminobutyric acid receptor subunit alpha-1 (Homo sapiens, UniProt P14867)
T1 sequence (P14867 whole entry): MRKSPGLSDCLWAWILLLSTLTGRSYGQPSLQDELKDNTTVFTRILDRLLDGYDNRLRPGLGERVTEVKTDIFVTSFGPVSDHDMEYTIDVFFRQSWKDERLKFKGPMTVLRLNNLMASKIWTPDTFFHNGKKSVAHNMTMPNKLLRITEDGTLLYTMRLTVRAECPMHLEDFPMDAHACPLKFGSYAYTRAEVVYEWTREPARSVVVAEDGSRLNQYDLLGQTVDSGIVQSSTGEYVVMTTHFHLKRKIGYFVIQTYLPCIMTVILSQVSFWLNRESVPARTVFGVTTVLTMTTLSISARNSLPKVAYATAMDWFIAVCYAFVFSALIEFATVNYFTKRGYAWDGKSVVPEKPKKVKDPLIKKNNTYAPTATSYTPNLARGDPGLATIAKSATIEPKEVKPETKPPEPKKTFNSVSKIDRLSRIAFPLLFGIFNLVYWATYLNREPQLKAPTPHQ

[2] = target: Gamma-aminobutyric acid receptor subunit alpha-4 (Homo sapiens, UniProt P48169)
Gamma-aminobutyric acid receptor subunit alpha-4, sequence (P48169 whole entry): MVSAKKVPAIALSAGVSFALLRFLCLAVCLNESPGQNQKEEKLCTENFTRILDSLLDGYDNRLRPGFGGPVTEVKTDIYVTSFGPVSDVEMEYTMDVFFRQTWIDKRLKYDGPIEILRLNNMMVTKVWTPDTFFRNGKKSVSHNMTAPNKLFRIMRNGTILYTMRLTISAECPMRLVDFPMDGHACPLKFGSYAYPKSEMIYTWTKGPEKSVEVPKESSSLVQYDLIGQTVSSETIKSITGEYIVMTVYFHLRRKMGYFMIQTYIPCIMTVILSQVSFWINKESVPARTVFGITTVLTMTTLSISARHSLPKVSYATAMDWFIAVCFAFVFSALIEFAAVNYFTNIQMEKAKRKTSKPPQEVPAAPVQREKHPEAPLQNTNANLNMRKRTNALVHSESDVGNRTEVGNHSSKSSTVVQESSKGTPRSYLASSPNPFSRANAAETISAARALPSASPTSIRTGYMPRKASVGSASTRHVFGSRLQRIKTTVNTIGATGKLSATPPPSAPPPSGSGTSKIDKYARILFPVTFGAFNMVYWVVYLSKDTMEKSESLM

Compound | Ki [1] | Ki [2]
COc1ccc(-n2[nH]c3c(cnc4ccccc43)c2=O)cc1 [2-(4-Methoxy-phenyl)-2,5-dihydro-pyrazolo[4,3-c]quinolin-3-one (CGS 9895)] | 0.09 nM | 4 nM
CCCOC(=O)c1cc2c(cn1)[nH]c1ccccc12 [CAS_123662] | 7.1 nM | 922 nM
O=c1c2cnc3ccccc3c2[nH]n1-c1ccc(Cl)cc1 | 0.26 nM | 59 nM
COC(=O)c1cc2c(cn1)[nH]c1ccccc12 | 0.5 nM | 640 nM
CC(C)(C)OC(=O)c1ncn2c1C1CCCN1C(=O)c1c(Br)cccc1-2 (centres undefined) [8-Bromo-7-oxo-3b,4,5,6-tetrahydro-7H-2,6a,11b-triaza-benzo[g]cyclopenta[e]azulene-3-carboxylic acid tert-butyl ester] | 0.45 nM | 36 nM and 22.5 nM
COCc1c(C(=O)OC(C)C)ncc2[nH]c3ccc(OCc4ccccc4)cc3c12 |  | 1060 nM
CCOC(=O)c1ncn2c1CN(C)C(=O)c1cc(N=[N+]=[N-])ccc1-2 [RO-154513] | 8.1 nM | 
COc1ccc(-n2[nH]c3c4c(ncc3c2=O)CCCCC4)cc1 [CGS-20625] | 0.15 nM | 22.4 nM and 77 nM
CNC(=O)c1cc2c(cn1)[nH]c1ccccc12 [CAS_4375] | 160 nM | > 10000 nM
Cc1ccc(-c2nc3ccc(C)cn3c2CC(=O)N(C)C)cc1 [Ambien] |  | > 10000 nM
CCc1c(C(=O)OC)ncc2[nH]c3cc(OC)c(OC)cc3c12 [NSC_104999] | 7.5 nM | 11.3 nM and 20 nM
Cc1nnc2ccc(-c3cccc(C(F)(F)F)c3)nn12 | 65 nM | > 10000 nM
O=c1c2cnc3ccccc3c2[nH]n1-c1ccccc1 | 0.11 nM | 11.9 nM
CCOC(=O)c1cc2c(cn1)[nH]c1ccccc12 | 0.6 nM | 
